Data taken from the supplement of paper PMC11451515.

Experiments:
Conditions in all cases: 48 h
P12-Ichikawa [1] = experiment: cell viability relative to DMSO control; higher = less cytotoxic
In short: (§1)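 Viability values are per-plate percentages of DMSO wells, with background from cell-free wells. Library compounds in DMSO were pin-dosed, in an 11-point threefold series from 47 μM to 0.79 nM, onto NOMO1 or SEM (500 cells/well) or P12-Ichikawa (1000 cells/well) leukemia cells in 1536-well plates (5 μl). Those cells had been adapted for at least four passages in each medium, and CellTiter-Glo One luminescence was read after 48 h at 37°C.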

NOMO1 [2] = experiment: as above
In short: as §1

SEM cells [3] = experiment: as above
In short: as §1

P12-Ichikawa [4] = experiment: AUC of viability dose-response curve (% viability x log10 dose units); higher = less sensitive
In short: (§2)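 Seeding of medium-adapted leukemia cells was at 500 or 1000 cells/well in 1536-well plates, followed by 48 h at 37°C with library compounds in DMSO at 11 threefold doses from 47 μM to 0.79 nM. CellTiter-Glo One luminescence was normalised per plate to DMSO and cell-free wells and fitted as a four-parameter log-logistic function of log10 dose. Area under the curve was integrated by trapezoidal rule, with curves exceeding full viability scaled and curves failing quality control removed.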

NOMO1 [5] = experiment: as above
In short: as §2

SEM cells [6] = experiment: as above
In short: as §2

c1ccc2[nH]c(-c3cscn3)nc2c1
cell viability [%]
Conditions | NOMO1 [2] | P12-Ichikawa [1] | SEM cells [3]
HPLM + 10% dialyzed FBS, 0.000781 µM | 122 | 115 | 93.6
HPLM + 10% dialyzed FBS, 0.00234 µM | 113 | 124 | 120
HPLM + 10% dialyzed FBS, 0.00702 µM | 136 | 124 | 111
HPLM + 10% dialyzed FBS, 0.0211 µM | 121 | 128 | 107
HPLM + 10% dialyzed FBS, 0.0632 µM | 133 | 122 | 115
HPLM + 10% dialyzed FBS, 0.19 µM | 135 | 128 | 105
HPLM + 10% dialyzed FBS, 0.569 µM | 122 | 122 | 109
HPLM + 10% dialyzed FBS, 1.71 µM | 133 | 122 | 69
HPLM + 10% dialyzed FBS, 5.12 µM | 107 | 108 | 111
HPLM + 10% dialyzed FBS, 15.4 µM | 102 | 86 | 42.7
HPLM + 10% dialyzed FBS, 46.1 µM | 90.8 | 74.6 | 116
RPMI 5 mM glucose + 10% FBS, 0.000781 µM | – | 113 | 98.5
RPMI 5 mM glucose + 10% FBS, 0.00234 µM | – | 118 | 132
RPMI 5 mM glucose + 10% FBS, 0.00702 µM | – | 110 | 121
RPMI 5 mM glucose + 10% FBS, 0.0211 µM | – | 122 | 85.9
RPMI 5 mM glucose + 10% FBS, 0.0632 µM | – | 128 | 112
RPMI 5 mM glucose + 10% FBS, 0.19 µM | – | 120 | 108
RPMI 5 mM glucose + 10% FBS, 0.569 µM | – | 128 | 126
RPMI 5 mM glucose + 10% FBS, 1.71 µM | – | 120 | 71.3
RPMI 5 mM glucose + 10% FBS, 5.12 µM | – | 135 | 103
RPMI 5 mM glucose + 10% FBS, 15.4 µM | – | 117 | 23.7
RPMI 5 mM glucose + 10% FBS, 46.1 µM | – | 90.7 | 71.7
RPMI 5 mM glucose + 10% dialyzed FBS, 0.000781 µM | – | 124 | 112
RPMI 5 mM glucose + 10% dialyzed FBS, 0.00234 µM | – | 131 | 127
RPMI 5 mM glucose + 10% dialyzed FBS, 0.00702 µM | – | 122 | 121
RPMI 5 mM glucose + 10% dialyzed FBS, 0.0211 µM | – | 124 | 94.4
RPMI 5 mM glucose + 10% dialyzed FBS, 0.0632 µM | – | 130 | 129
RPMI 5 mM glucose + 10% dialyzed FBS, 0.19 µM | – | 127 | 132
RPMI 5 mM glucose + 10% dialyzed FBS, 0.569 µM | – | 130 | 139
RPMI 5 mM glucose + 10% dialyzed FBS, 1.71 µM | – | 121 | 80.6
RPMI 5 mM glucose + 10% dialyzed FBS, 5.12 µM | – | 125 | 124
RPMI 5 mM glucose + 10% dialyzed FBS, 15.4 µM | – | 109 | 33.7
RPMI 5 mM glucose + 10% dialyzed FBS, 46.1 µM | – | 72.9 | 97.3

AUC of viability dose-response curve
Conditions | NOMO1 [5] | P12-Ichikawa [4] | SEM cells [6]
HPLM + 10% dialyzed FBS | 452 | 446 | 439
RPMI 5 mM glucose + 10% FBS | 474 | 470 | 419
RPMI 5 mM glucose + 10% dialyzed FBS | 474 | 461 | 445

CC(C)(O)CC[C@@H](O)[C@](C)(O)[C@H]1CC[C@@]2(O)C/3=C/C(=O)[C@@H]4C[C@@H](O)[C@@H](O)C[C@]4(C)[C@H]3CC[C@]12C
cell viability [%]
Conditions | NOMO1 [2] | P12-Ichikawa [1] | SEM cells [3]
HPLM + 10% dialyzed FBS, 0.000781 µM | 111 | 100 | 115
HPLM + 10% dialyzed FBS, 0.00234 µM | 98.6 | 103 | 107
HPLM + 10% dialyzed FBS, 0.00702 µM | 110 | 94.5 | 112
HPLM + 10% dialyzed FBS, 0.0211 µM | 86.8 | 96.6 | 97.8
HPLM + 10% dialyzed FBS, 0.0632 µM | 84.6 | 102 | 97.5
HPLM + 10% dialyzed FBS, 0.19 µM | 98.5 | 98.4 | 110
HPLM + 10% dialyzed FBS, 0.569 µM | 98 | 88.6 | 99.7
HPLM + 10% dialyzed FBS, 1.71 µM | 103 | 93.6 | 103
HPLM + 10% dialyzed FBS, 5.12 µM | 87.4 | 89.2 | 93.5
HPLM + 10% dialyzed FBS, 15.4 µM | 94.9 | 89.6 | 89.7
HPLM + 10% dialyzed FBS, 46.1 µM | 81.7 | 87.4 | 94.7
RPMI 5 mM glucose + 10% FBS, 0.000781 µM | 87.9 | 90.7 | 96.3
RPMI 5 mM glucose + 10% FBS, 0.00234 µM | 97.3 | 96.3 | 93.8
RPMI 5 mM glucose + 10% FBS, 0.00702 µM | 86.9 | 93.4 | 98.3
RPMI 5 mM glucose + 10% FBS, 0.0211 µM | 83.8 | 96.3 | 93.4
RPMI 5 mM glucose + 10% FBS, 0.0632 µM | 93.2 | 86.7 | 102
RPMI 5 mM glucose + 10% FBS, 0.19 µM | 91.9 | 104 | 98.8
RPMI 5 mM glucose + 10% FBS, 0.569 µM | 91.2 | 92.2 | 85.2
RPMI 5 mM glucose + 10% FBS, 1.71 µM | 88.6 | 94.1 | 97.7
RPMI 5 mM glucose + 10% FBS, 5.12 µM | 80 | 88 | 96.4
RPMI 5 mM glucose + 10% FBS, 15.4 µM | 84.2 | 86 | 87
RPMI 5 mM glucose + 10% FBS, 46.1 µM | 83.1 | 96.8 | 79.8
RPMI 5 mM glucose + 10% dialyzed FBS, 0.000781 µM | 108 | 95 | 104
RPMI 5 mM glucose + 10% dialyzed FBS, 0.00234 µM | 110 | 90.6 | 106
RPMI 5 mM glucose + 10% dialyzed FBS, 0.00702 µM | 108 | 90.8 | 103
RPMI 5 mM glucose + 10% dialyzed FBS, 0.0211 µM | 95.2 | 89 | 80.2
RPMI 5 mM glucose + 10% dialyzed FBS, 0.0632 µM | 105 | 94.6 | 81.7
RPMI 5 mM glucose + 10% dialyzed FBS, 0.19 µM | 91.6 | 89.2 | 92.8
RPMI 5 mM glucose + 10% dialyzed FBS, 0.569 µM | 105 | 88.8 | 77.3
RPMI 5 mM glucose + 10% dialyzed FBS, 1.71 µM | 90 | 86.9 | 104
RPMI 5 mM glucose + 10% dialyzed FBS, 5.12 µM | 86.2 | 91.2 | 83.4
RPMI 5 mM glucose + 10% dialyzed FBS, 15.4 µM | 88.1 | 83.3 | 94.2
RPMI 5 mM glucose + 10% dialyzed FBS, 46.1 µM | 94.4 | 89.4 | 74.6

AUC of viability dose-response curve
Conditions | NOMO1 [5] | P12-Ichikawa [4] | SEM cells [6]
HPLM + 10% dialyzed FBS | 410 | 453 | 434
RPMI 5 mM glucose + 10% FBS | 421 | 444 | 449
RPMI 5 mM glucose + 10% dialyzed FBS | 429 | 429 | 412

CCOC(=O)c1ccc(OC(=O)CCCCCNC(=N)N)cc1
cell viability [%]
Conditions | NOMO1 [2] | P12-Ichikawa [1] | SEM cells [3]
HPLM + 10% dialyzed FBS, 0.000781 µM | 126 | 117 | 111
HPLM + 10% dialyzed FBS, 0.00234 µM | 115 | 121 | 91.3
HPLM + 10% dialyzed FBS, 0.00702 µM | 122 | 123 | 117
HPLM + 10% dialyzed FBS, 0.0211 µM | 116 | 122 | 120
HPLM + 10% dialyzed FBS, 0.0632 µM | 137 | 125 | 123
HPLM + 10% dialyzed FBS, 0.19 µM | 128 | 126 | 131
HPLM + 10% dialyzed FBS, 0.569 µM | 127 | 124 | 132
HPLM + 10% dialyzed FBS, 1.71 µM | 84.6 | 76 | 127
HPLM + 10% dialyzed FBS, 5.12 µM | 91.8 | 10.7 | 120
HPLM + 10% dialyzed FBS, 15.4 µM | 62.4 | 16.3 | 57.9
HPLM + 10% dialyzed FBS, 46.1 µM | 55 | 17.4 | 39.8
RPMI 5 mM glucose + 10% FBS, 0.000781 µM | 117 | – | 116
RPMI 5 mM glucose + 10% FBS, 0.00234 µM | 119 | – | 108
RPMI 5 mM glucose + 10% FBS, 0.00702 µM | 124 | – | 134
RPMI 5 mM glucose + 10% FBS, 0.0211 µM | 114 | – | 109
RPMI 5 mM glucose + 10% FBS, 0.0632 µM | 131 | – | 130
RPMI 5 mM glucose + 10% FBS, 0.19 µM | 128 | – | 140
RPMI 5 mM glucose + 10% FBS, 0.569 µM | 114 | – | 141
RPMI 5 mM glucose + 10% FBS, 1.71 µM | 132 | – | 105
RPMI 5 mM glucose + 10% FBS, 5.12 µM | 77.3 | – | 45.9
RPMI 5 mM glucose + 10% FBS, 15.4 µM | 83 | – | 31.8
RPMI 5 mM glucose + 10% FBS, 46.1 µM | 104 | – | 27.2
RPMI 5 mM glucose + 10% dialyzed FBS, 0.000781 µM | 116 | – | 99.1
RPMI 5 mM glucose + 10% dialyzed FBS, 0.00234 µM | 110 | – | 86.9
RPMI 5 mM glucose + 10% dialyzed FBS, 0.00702 µM | 135 | – | 142
RPMI 5 mM glucose + 10% dialyzed FBS, 0.0211 µM | 134 | – | 132
RPMI 5 mM glucose + 10% dialyzed FBS, 0.0632 µM | 114 | – | 109
RPMI 5 mM glucose + 10% dialyzed FBS, 0.19 µM | 142 | – | 117
RPMI 5 mM glucose + 10% dialyzed FBS, 0.569 µM | 137 | – | 123
RPMI 5 mM glucose + 10% dialyzed FBS, 1.71 µM | 154 | – | 125
RPMI 5 mM glucose + 10% dialyzed FBS, 5.12 µM | 85.7 | – | 95.7
RPMI 5 mM glucose + 10% dialyzed FBS, 15.4 µM | 81.8 | – | 37.8
RPMI 5 mM glucose + 10% dialyzed FBS, 46.1 µM | 91.2 | – | 26.4

AUC of viability dose-response curve
Conditions | NOMO1 [5] | P12-Ichikawa [4] | SEM cells [6]
HPLM + 10% dialyzed FBS | 410 | 354 | 436
RPMI 5 mM glucose + 10% FBS | 444 | 413 | 385
RPMI 5 mM glucose + 10% dialyzed FBS | 437 | 407 | 418
